Assay results taken from patent publication US20240400500A1, “SMALL-MOLECULE COMPOUND HAVING NAPHTHALENETHIOL ETHER STRUCTURE, AND USE THEREOF” (HANGZHOU PHECDAMED CO., LTD., priority 2021, published 2024).

Legend:
[1] = In vitro liver microsome stability test (mice); assay type: in vitro ADME; conditions: mice liver microsomes, NADPH, 37° C., 0-45 min
Method: (§1) Selecting Ketanserin as the reference compound. The specific method is as follows:
(§2) Preparing 0.1M K3PO4 (pH 7.4) buffer and 3×NADPH stock solution (6 mM, 5 mg/mL), and preheating in a 37° C. water bath; preparing of test compound and control compound spiking solution: adding 5 μL compound stock solution ([…]) into 95 μL acetonitrile; preparing of 1.5 μM spiking solution in microsomes (0.75 mg/mL): adding 1.5 μL spiking solution and 18.75 μL liver microsomes solution (20 mg/mL) into 479.75 μL K3PO4 buffer; taking 30 μL spiking solution in microsomes to the multi-well plate and incubating at 37° C. for 5 minutes; adding 15 μL NADPH stock solution into each well to start the reaction, and timing; respectively at 0 min, 5 min, 15 min, 30 min and 45 min, adding 150 μL of IS-containing acetonitrile solution to terminate the reaction; shaking for 10 mins and then centrifuging at 6000 rpm for 15 mins; taking 80 μL of the supernatant from each well for LC/MS detection and calculating T1/2.
(§3) Note: The mice and human liver microsomes used in the experiments are purchased from Xenotech.

HEK293T-mtkeima cells [2] = assay: Functional test of mitophagy inducer, direct treatment without CCCP; assay type: cell-based, human; conditions: for Ability to induce mitophagy: HEK293T-mtkeima cells, number of cells in which mitophagy occurs/number of total cells
Method: Seeding human embryonic kidney transformed cells HEK293T-mtkeima cells in a 96-well black ELISA Plate at 1.5*10^5 cells/ml, 100 μl per well; after 25 hours, adding UMI-77 and compounds I-1˜I-26 respectively, and setting up 3 replicates; under 37° C., 5% CO2 incubation conditions, taking picture with biotekcytation5 every few hours for a total of 20 hours. Taking the bright field as the focusing channel, and taking 9pictures per well, and processing the pictures by using the instrument software and converting into the degree of mitophagy strength, exemplifying by UMI-77 and Compound I-4, the results are shown in FIG. 1.
Note: The HEK293T-mtkeima cells used in the experiments are HEK293T-mtkeima cells obtained according to the method mentioned in the literature [Cen, X. et al. Nat Commun 11, 5731 (2020).], by using lentiviral packaging technology, and stably expressing mtkeima protein in HEK293T cells. The CCCP used in the experiments is purchased from TargetMol (Item No. T7081).

HEK293T-mtkeima cells [3] = assay: Selective induction of mitophagy after CCCP-induced mitochondrial damage; assay type: cell-based, human; conditions: 5 uM or 10 uM CCCP pre-treatment compared with no CCCP treatment
[4] = In vitro liver microsome stability test (human); assay type: in vitro ADME; conditions: human liver microsomes, NADPH, 37° C., 0-45 min
Method: as §1, §2, §3

Compound	Ability to induce mitophagy (HEK293T-mtkeima cells [2])	also measured
CN(c1cc(SCC(=O)O)c(O)c2ccccc12)S(=O)(=O)c1ccc(Br)cc1 [Compound I-1]	+++ (strong ability to induce mitophagy (number of cells in which mitophagy occurs/number of total cells >0.30))	Liver microsome stability [1]: relatively superior stability; Selective induction of autophagy in damaged mitochondria (FIG. 2) (HEK293T-mtkeima cells [3]): more likely to induce autophagy in damaged mitochondria; Liver microsome stability [4]: relatively superior stability
O=C(O)CSc1cc(N(CCO)S(=O)(=O)c2ccc(Br)cc2)c2ccccc2c1O [Compound I-2]	++ (moderate ability to induce mitophagy (number of cells in which mitophagy occurs/number of total cells is in the range of 0.2~0.3))	
O=C(O)CSc1cc(N(c2ccccc2)S(=O)(=O)c2ccc(Br)cc2)c2ccccc2c1O [Compound I-3]	++ (moderate ability to induce mitophagy (number of cells in which mitophagy occurs/number of total cells is in the range of 0.2~0.3))	
CN=S(=O)(Nc1cc(SCC(=O)O)c(O)c2ccccc12)c1ccc(Br)cc1 (centres unmarked) [Compound I-4]	+++ (strong ability to induce mitophagy (number of cells in which mitophagy occurs/number of total cells >0.30))	Liver microsome stability [1]: relatively superior stability; Strength of mitophagy induction compared with UMI-77 (FIG. 1) (HEK293T-mtkeima cells [2]; cells not treated with CCCP): induces mitophagy more strongly than UMI-77; Liver microsome stability [4]: relatively superior stability
O=C(O)CSc1cc(NS(=O)(=NC2CC2)c2ccc(Br)cc2)c2ccccc2c1O (centres unmarked) [Compound I-5]	+++ (strong ability to induce mitophagy (number of cells in which mitophagy occurs/number of total cells >0.30))	
O=C(O)CSc1cc(NS(=O)(=NC2COC2)c2ccc(Br)cc2)c2ccccc2c1O (centres unmarked) [Compound I-6]	+++ (strong ability to induce mitophagy (number of cells in which mitophagy occurs/number of total cells >0.30))	
O=C(O)CSc1cc(NS(=O)(=Nc2ccccc2)c2ccc(Br)cc2)c2ccccc2c1O (centres unmarked) [Compound I-8]	++ (moderate ability to induce mitophagy (number of cells in which mitophagy occurs/number of total cells is in the range of 0.2~0.3))	
CN=S(=O)(c1ccc(Br)cc1)N(C)c1cc(SCC(=O)O)c(O)c2ccccc12 (centres unmarked) [Compound I-9]	++ (moderate ability to induce mitophagy (number of cells in which mitophagy occurs/number of total cells is in the range of 0.2~0.3))	
O=C(O)CSc1cc(N2CCN=S2(=O)c2ccc(Br)cc2)c2ccccc2c1O (centres unmarked) [Compound I-10]	++ (moderate ability to induce mitophagy (number of cells in which mitophagy occurs/number of total cells is in the range of 0.2~0.3))	
O=C(O)CSc1cc(N2CCCN=S2(=O)c2ccc(Br)cc2)c2ccccc2c1O (centres unmarked) [Compound I-11]	++ (moderate ability to induce mitophagy (number of cells in which mitophagy occurs/number of total cells is in the range of 0.2~0.3))	
CN=S(=O)(Nc1cc(SCc2nn[nH]n2)c(O)c2ccccc12)c1ccc(Br)cc1 (centres unmarked) [Compound I-12]	+++ (strong ability to induce mitophagy (number of cells in which mitophagy occurs/number of total cells >0.30))	
CN=S(=O)(Nc1cc(SCc2nnc[nH]2)c(O)c2ccccc12)c1ccc(Br)cc1 (centres unmarked) [Compound I-13]	++ (moderate ability to induce mitophagy (number of cells in which mitophagy occurs/number of total cells is in the range of 0.2~0.3))	
CN=S(=O)(Nc1cc(SCC(=O)O)c(OC(C)=O)c2ccccc12)c1ccc(Br)cc1 (centres unmarked) [Compound I-14]	++ (moderate ability to induce mitophagy (number of cells in which mitophagy occurs/number of total cells is in the range of 0.2~0.3))	
CN=S(=O)(Nc1cc(SCC(=O)O)c(O)c2ccccc12)c1ccc(Oc2ccccc2)cc1 (centres unmarked) [Compound I-17]	+++ (strong ability to induce mitophagy (number of cells in which mitophagy occurs/number of total cells >0.30))	
CN=S(=O)(Nc1cc(SCC(=O)O)c(O)c2ccccc12)c1ccc(-c2ccccc2)cc1 (centres unmarked) [Compound I-18]	++ (moderate ability to induce mitophagy (number of cells in which mitophagy occurs/number of total cells is in the range of 0.2~0.3))	
CN=S(=O)(Nc1cc(SCC(=O)O)c(O)c2ccccc12)c1ccc(C(F)(F)F)cc1 (centres unmarked) [Compound I-19]	+++ (strong ability to induce mitophagy (number of cells in which mitophagy occurs/number of total cells >0.30))	
CN=S(=O)(Nc1cc(SCC(=O)O)c(O)c2ccccc12)c1ccc2ccccc2c1 (centres unmarked) [Compound I-20]	++ (moderate ability to induce mitophagy (number of cells in which mitophagy occurs/number of total cells is in the range of 0.2~0.3))	
CN=S(=O)(Nc1cc(SCC(=O)O)c(O)c2ccccc12)c1cccs1 (centres unmarked) [Compound I-21]	+++ (strong ability to induce mitophagy (number of cells in which mitophagy occurs/number of total cells >0.30))	
CN=S(=O)(Nc1cc(SCC(=O)O)c(O)c2ccccc12)c1cccc(-c2ccccc2)c1 (centres unmarked) [Compound I-22]	++ (moderate ability to induce mitophagy (number of cells in which mitophagy occurs/number of total cells is in the range of 0.2~0.3))	
O=C(O)CSc1cc(NS(=O)(=O)c2ccc(Br)cc2)c2ccccc2c1O [UMI-77, reference compound]	+ (weak ability to induce mitophagy (number of cells in which mitophagy occurs/number of total cells is in the range of 0.1~0.2))	Liver microsome stability [1]: unstable; Selective induction of autophagy in damaged mitochondria (FIG. 2) (HEK293T-mtkeima cells [3]): unable to selectively induce autophagy in damaged mitochondria; Liver microsome stability [4]: unstable
